In US20030149028A1, “Pesticidal compositions” (priority 2001, published 2003):

Tests used:
Format in all cases: in vivo
[1] = test system: rice leafhopper species Nephoteftix cincticeps; test: Method D: Nephotettix cinciceps Screen; conditions: concentration of 500 ppm or less; rice plants dipped, L3 larvae, after 6 days at 25° C.
Protocol: Method D: Nephotettix cinciceps Screen
The leaves of 12 rice plants having a stem length of 8 cm were dipped for 5 seconds into an aqueous solution of the formulated preparation to be examined. After the solution had run off, the rice plants treated in this manner were placed in a Petri dish and populated with about 20 larvae (L3 stage) of the rice leafhopper species Nephoteftix cincticeps. The Petri dish was closed and then stored in a climate chamber (16 hours of light/day, 25° C., 40-60% relative atmospheric humidity). After 6 days storage, the mortality among the leafhopper larvae was determined.

[2] = test system: tick larvae (Rhipicephalus sanguineus); test: Method E: Rhipicephalus sanguineus Screen; conditions: concentration of 500 ppm or less, treated filter paper, after 24 hours at 25° C.
Protocol: Method E: Rhipicephalus sanguineus Screen A solution of the formulated preparation to be examined was dropped onto filter paper. After solvent evaporation the filter paper was infested with 20-30 tick larvae (Rhipicephalus sanguineus). After 24 hours storage at 25° C. the efficacy of the preparation was determined.

[3] = test system: black bean aphids (Aphis fabae); test: Method B: Aphis fabae Screen; conditions: concentration of 500 ppm or less; added to water of field bean (Vicia faba) plants, effect on aphids after 3 and 6 days at 25° C.
Protocol: Method B: Aphis fabae Screen Germinated field bean seeds (Vicia faba) with roots were transferred into bottles filled with tap water and an aqueous solution of the formulated preparation to be examined (4 ml) was added. The plants were then infested with approximately 100 black bean aphids (Aphis fabae) and stored in a controlled-environment cabinet at 25° C. After 3 and 6 days storage, the effect of the preparation on the aphids was determined.

With CC1=NN(c2c(Cl)cc(C(F)(F)F)cc2Cl)C(=O)C12SC1C=CC2C1 (stereo not drawn) [Compound 8, [1-(2,6-dichloro-4-trifluoromethylphenyl)-3-methylpyrazolin-5-one]-4-spiro-3′-(2′-thiabicyclo[2.2.1]hept-5′-ene)] the “control (mortality among the leafhopper larvae)” value [1] was “at least 50%”.
CC1=C(C)CC2(SC1)C(=O)N(c1c(Cl)cc(C(F)(F)F)cc1Cl)N=C2C#N (stereo not drawn) [Compound 9, [1-(2,6-dichloro-4-trifluoromethylphenyl)-3-cyanopyrazolin-5-one]-4-spiro-2′-(4′,5′-dimethyl-2′H-3′,6′-dihydrothiane)] was tested, and the “control (efficacy)” value [2] was “at least 50%”.
With CC1=NN(c2c(Cl)cc(C(F)(F)F)cc2Cl)C(=O)C12CC=C(c1ccccc1)C[S+]2[O-] (stereo not drawn) [Compound 12, [1-(2,6-dichloro-4-trifluoromethylphenyl)-3-methylpyrazolin-5-one]-4-spiro-2′-(5′-phenyl-1′-oxo-2′H-3′,6′-dihydrothiane)] the control [3] was “at least 50%”.
